Several values for one entry are separate records, joined by “and”; a condition that tells them apart may be missing. Equal values may be shown once.
What was measured:
[1] = tested on: influenza A(H1N1) viruses; details: cited from earlier work
[2] = tested on: NA enzyme activity of influenza A(H1N1) viruses; assay type: biochemical, influenza A(H1N1) virus; details: read-out: IC50-values of outliers with reduced zanamivir susceptibility

CCOC(=O)C1=C[C@@H](OC(CC)CC)[C@H](NC(C)=O)[C@@H](N)C1 [oseltamivir]
average prevalence of ORV in Europe [1]: 20.1%

CC(=O)N[C@H]1[C@H]([C@H](O)[C@H](O)CO)OC(C(=O)O)=C[C@@H]1N=C(N)N [zanamivir]
IC50 [2]: 3.1 nM and 3.4 nM and 5.3 nM
